{"source": "patent US20250353819A1", "about": "“ARYL HYDANTOIN COMPOUNDS AND METHODS OF USE” (priority 2022, published 2025)", "key": {"[1]": {"assay": "In vitro metabolic stability, human liver microsomes", "type": "in vitro ADME", "details": "human liver microsomes; read-out: h CLint", "method": "(§1) In Vitro Metabolic Stability. As described by Charman et al. (2020), metabolic stability assays were performed by incubating test compounds in liver microsomes at 37° C. and 0.4 mg/mL protein concentration. The metabolic reaction was initiated by the addition of an NADPH-regenerating system and quenched at various time points over a 60 min incubation period by the addition of acetonitrile containing diazepam as internal standard. Control samples (containing no NADPH) were included (and quenched at 2, 30 and 60 min) to monitor for potential degradation in the absence of cofactor."}, "[2]": {"assay": "In vitro metabolic stability, mouse liver microsomes", "type": "in vitro ADME", "details": "mouse liver microsomes; read-out: m CLint", "method": "as §1"}, "[3]": {"assay": "Mouse exposure / pharmacokinetic studies", "type": "in vivo, mice"}, "[4]": {"assay": "Stability in human cryopreserved hepatocytes", "type": "in vitro ADME"}, "[5]": {"assay": "Stability in dog cryopreserved hepatocytes", "type": "in vitro ADME", "details": "Dog cryopreserved hepatocytes"}, "[6]": {"assay": "Stability in rat cryopreserved hepatocytes", "type": "in vitro ADME", "details": "Rat cryopreserved hepatocytes"}, "[7]": {"assay": "Stability in mouse cryopreserved hepatocytes", "type": "in vitro ADME"}, "[8]": {"assay": "Whole blood-to-plasma ratio, rat", "type": "in vitro ADME", "method": "As part of the assessment of the IV pharmacokinetics, an additional blood sample was collected from each rat at 1 h post dose for the purposes of determining the whole blood-to-plasma (B/P) ratio. Arterial blood was collected into tubes containing heparin. The haematocrit was determined via centrifugation (13000×g for 4 min using a Clemets® Microhematocrit centrifuge and Safecap® Plain Self-sealing Mylar Wrapped capillary tubes), and values ranged from 41% to 42%. Each blood aliquot ([…]) was collected and matrix matched with an equivalent volume of blank plasma. The remainder of the blood sample was centrifuged and […] plasma aliquot was collected and matrix matched with an equivalent volume of blank blood. Samples were frozen on dry ice and stored at −80° C. until analysis by LC-MS."}, "[9]": {"assay": "Whole blood-to-plasma ratio, mouse"}}, "note": "Read-outs that look alike come from different tables or passages of the source."}
{"smiles": "CC1(C)NC(=O)N(c2ccc(F)c(C(C)(F)F)c2)C1=O", "note": "[Compound IC, 3-(3-(1,1-difluoroethyl)-4-fluorophenyl)-5,5-dimethylimidazolidine-2,4-dione]", "values": [{"measurement": "microsomal CLint", "setting": "[1]", "result": 7, "unit": "µL/min/mg"}, {"measurement": "microsomal CLint", "setting": "[2]", "result": "< 7", "unit": "µL/min/mg"}, {"measurement": "clearance", "setting": "[3]; male, Swiss outbred, mouse, in vivo, iv, 1 mg/kg, mice, IV, mean dose 1.0 mg/kg, read-out: Plasma CL", "result": 1.96, "unit": "mL/min/kg"}, {"measurement": "AUC(0-t)", "setting": "[3]; male, Swiss outbred, mouse, in vivo, 100 mg/kg PO in mice, read-out: AUC0-last", "result": 1560, "unit": "µg·h/mL"}, {"measurement": "Cmax", "setting": "[3]; male, Swiss outbred, mouse, in vivo, 100 mg/kg PO in mice, read-out: Cmax", "result": 40000, "unit": "ng/mL"}, {"measurement": "AUC(0-t)", "setting": "[3]; male, Swiss outbred, mouse, in vivo, mice, IV, mean dose 1.0 mg/kg, read-out: Plasma AUC0-48 h", "result": 8.48, "unit": "µg·h/mL"}, {"measurement": "AUC(0-inf)", "setting": "[3]; male, Swiss outbred, mouse, in vivo, mice, IV, mean dose 1.0 mg/kg, read-out: Plasma AUC0-inf", "result": 8520, "unit": "ng·h/mL"}, {"measurement": "half-life", "setting": "[3]; male, Swiss outbred, mouse, plasma, mice, IV, mean dose 1.0 mg/kg, read-out: Apparent t1/2 (converted)", "result": 534, "unit": "min"}, {"measurement": "PlasmaVSS", "setting": "[3]; mice, IV, mean dose 1.0 mg/kg", "result": 1.64, "unit": "L/kg"}, {"measurement": "CLint", "setting": "[4]", "result": "<1", "unit": "μL/min/10^6"}, {"measurement": "CLint", "setting": "[5]", "result": "<1.9", "unit": "μL/min/10^6"}, {"measurement": "CLint", "setting": "[6]", "result": "<1", "unit": "μL/min/10^6"}, {"measurement": "CLint", "setting": "[7]", "result": "<1.8", "unit": "μL/min/10^6"}, {"measurement": "B:P", "setting": "[8]", "result": 1.2}, {"measurement": "B:P", "setting": "[9]", "result": 0.95}]}
